The results in this text go back to patent US4980349A, “Sulphonamides derived from diarylmethanes, the processes for preparing them and pharmaceutical compositions containing them” (SANOFI, priority 1986, dated 1990).

Read-outs that look alike come from different tables or passages of the source.

Test [1] deals with rat hind foot kaolin-induced oedema. The test is described as follows: Kaolin-induced arthritis test, first experiment (decrease in inflammation, foot volume). Particulars: 1 h before kaolin, Table IX, read-out: percentage decrease in the inflammation; for change in vivo at 25 mg/kg: 25 mg/kg oral; for change in vivo at 50 mg/kg: 50 mg/kg oral; for change in vivo at 100 mg/kg: 100 mg/kg oral. It is filed as in vivo. How it is done:
The […] of 0.05 ml of a sterile 10% strength suspension of kaolin into the metatarsal flexor sheath of the hind foot of a rat initially induces an oedematous reaction. An inflammatory arthritis then forms.
The early oedematous reaction appears from the first hour, and reaches its maximum between the fourth hour and the sixth hour. This is the manifestation of interest. The assessment of the volume of the foot enables the action of substances on the oedematous reaction to be studied. The measurements are carried out using a Giono and Chevilard plethysmometer.
The test products are administered orally (stomach tube) one hour before the injection of the kaolin.
The results are expressed as a percentage decrease in the inflammation in the treated animals compared with a control series of animals.
The batches are of 10 animals per dose and 10 control animals.
The figures shown represent the mean of 10 animals.

For test [2], the system named is rat hind foot carragheenin-induced oedema. The test is described as follows: Carragheenin-induced oedema test. It is filed as in vivo. The settings on record: 3 h, first experiment, Table X, read-out: percentage inhibition of the inflammation; for change in vivo at 25 mg/kg: 25 mg/kg oral; for change in vivo at 50 mg/kg: 50 mg/kg oral; for change in vivo at 100 mg/kg: 100 mg/kg oral. As to the method:
In this test, 10 rats are used per test compound of the invention. Control batches of 10 rats also receive either the comparative compound (ketoprofen) or exclusively an NaCl solution.
The compounds of the invention are administered orally (stomach tube) one hour before the injection of carragheenin.
The carragheenin is suspended at a concentration of 1% in a 0.9% isotonic sodium chloride solution. The volume injected into the rat's foot is 0.20 ml.
The volume of the foot is measured before the injection and 3 hours later. The antagonistic effect of the products towards carragheenin is reflected in the inhibition of the volume of the oedema compared with control rats. The latter receive only isotonic NaCl solution under identical conditions.

Test [3] deals with foreign-body (sponge) granuloma in rats. The test can be described thus: Experimental granuloma induced by foreign body, histological study. In kind it is in vivo, Wistar rats. Particulars: 8 days, Table XI. As to the method:
This test consists in studying the subacute cellular phase which is developed in the 8 days which follow the implantation of a foreign body, a sponge of non-resorbable plastic, in the dorsal subcutaneous connective tissue in rats.
The granulomas formed are removed 8 days after the implantation; a histological study is carried out after fixing the tissue and staining sections with hematein/ eosin. The observation is more especially concerned with the cell population of the primary phase of the formation of the granulation tissue: the reticulohistocytic cells, lymphocytes and more especially the macrophages.
The animals used are Wistar rats weighing 120-140 g and of the same origin, maintained under the same conditions of housing throughout the treatment (8 days).
The compounds of the invention are administered orally, in a gum suspension, in the morning in a fasted state, using an oesophageal tube.
After 8 days of treatment, the rats are sacrificed by decapitation and the granulomas removed and prepared for the purpose of histological examination.
The experiment conditions are as follows:
The animals are distributed in batches of 10;
Each test product is administered at 2 doses, of 50 and 100 mg, respectively, to 2 batches of 10 animals;
Ketoprofen is used by way of reference product at the same 2 doses and under the same conditions; and
A batch of 10 control animals receives no treatment.
In this experiment, on the one hand a histological study of the granulomas is performed by sampling on day 8 (results recorded in Table XIa), and on the other hand a study of the weight of the granulomas was performed 10 days after the implantation (results recorded in Table XIb).

Test [4] relates to pain threshold of brewer's yeast inflamed rat hind foot. The test is described as follows: Randall and Sellitto's test (analgesic activity). In kind it is in vivo. Particulars: first experiment, Table XII, read-out: percentage increase in the mean pain threshold; for change in vivo at 25 mg/kg: 25 mg/kg oral; for change in vivo at 50 mg/kg: 50 mg/kg oral; for change in vivo at 100 mg/kg: 100 mg/kg oral. As to the method: Inflammation increases the sensitivity to pain, in particular to pressure, and analgesics raise the threshold of the sensitivity.
The inflammation is obtained by injecting 0.1 ml of a 20% strength aqueous suspension of brewer's yeast under the plantar aponeurosis of one of the hind feet. […] The pain threshold is assessed in terms of the force necessary and sufficient to initiate a characteristic reaction of withdrawing the foot.
The sensitivity to pain of the inflamed foot reaches a plateau 4 hours after the injection of the brewer's yeast, and then remains stable until the 6th hour. The pain threshold of the inflamed foot in control rats weighing 140 g is reached for pressures of 50 to 60 g, whereas it is around 160 g for the intact foot.
The action of the substance administered orally to series of 10 rats is expressed in terms of the percentage increase in the mean pain threshold, compared with that measured in the rats of a control series of 10 animals which have not received a compound of the invention.
The test products are administered orally (stomach tube) one hour before the injection of brewer's yeast.
The comparative compound used is ketoprofen.

The subject of test [5] is biosynthesis of leukotrienes B4 (LTB4), human polymorphonuclear leukocytes. The test can be described thus: Biosynthesis of LTB4, isomers and oxidized metabolites in human polymorphonuclear leukocytes. In kind it is cell-based. Particulars: Leukocyte, first experiment. How it is done: Polymorphonuclear leukocytes are isolated from human blood and used during the 6 hours following the withdrawal. The viability of the cells is checked by trypan blue exclusion.
5×10^6 cells are incubated for 10 minutes at 37° C. in the presence of the test product dissolved in DMSO, and are stimulated with ionophore A 23187 (Galbiochem, 10 μM) in PBS buffer at pH 7.4, Ca^2+ and Mg^2+ =1 μM.
100 ng of prostaglandin B2 (PGB2), dissolved in methanol, are added at the end of the reaction to act as an internal standard.
On centrifugation, the culture supernatant is withdrawn. The latter is retrieved under argon and stored at -80° C. until analysed by HPLC.
This analysis is carried out by injecting 250 μl onto a 5 μm ODS ultrasphere column (Beckmann), with a gradient of acetonitrile (20-80%) in water, at pH 7.4.
The amounts of the different products which absorb at 269 nm, i.e. leukotrienes B4 (LTB4), isomers of LTB4 and oxidized metabolites of LTB4, are estimated by comparison with the internal standard.
The test product is used at a concentration of 40 μM.
They are expressed either as a percentage inhibition, or as a percentage increase in the production of LTB4, isomers of LTB4 and oxidized metabolites of LTB4 (designated by +).
The experimental model is the same as that described in Section 2.1. Other products are tested by comparison with the compound of the invention no. 1574, used as a control.

The mark [6] stands for this setting: read-out: Isomers of LTB4: percentage inhibition (+ : percentage increase in the production).
The mark [7] stands for this setting: read-out: LTB4: percentage inhibition (+ : percentage increase in the production).
The mark [8] stands for this setting: read-out: Oxidized metabolites of LTB4: percentage inhibition (+ : percentage increase in the production).

What is called inhibition is the change of the read-out against control, counted positive when it falls.

For the compound `O=C(c1ccc(Cl)cc1)c1ccccc1S(=O)(=O)NCCCN1CCOCC1` [Compound 1410], in test [1], the change in vivo at 25 mg/kg was -18%, the change in vivo at 50 mg/kg was -32% and the change in vivo at 100 mg/kg was -57%. Moreover, in test [2], the change in vivo at 25 mg/kg was -15%, the change in vivo at 50 mg/kg is -25% and the change in vivo at 100 mg/kg was -48%. The “histological study of the granuloma” value in test [3] (both doses (50 and 100 mg/kg) oral) is “inflammatory reaction is attenuated”. For the same compound, in test [4], the change in vivo at 25 mg/kg stood at 19%, the change in vivo at 50 mg/kg is 37% and the change in vivo at 100 mg/kg is 58%.

As for `O=C(O)CCCCCNS(=O)(=O)c1ccc(Cl)cc1C(=O)c1ccccc1Cl` [Compound 1570], the results for the change in vivo at 25 mg/kg in test [1], in test [2] and in test [4] were -10%, -20% and 15%, respectively. For the same compound, the change in vivo at 50 mg/kg in test [1] is -25%; in test [2] it was -29%; in test [4], 25%. Besides, the change in vivo at 100 mg/kg was -52% in test [1], -40% in test [2] and 53% in test [4]. The results for the “histological study of the granuloma” value in test [3] (50 mg/kg oral) and in test [3] (100 mg/kg oral) were “anti-inflammatory activity is exhibited” and “distinct”, respectively.

With `O=C(O)CCCCCCCCCCCNS(=O)(=O)c1ccccc1C(=O)c1ccccc1` [Compound 1683], the change in vivo at 25 mg/kg in test [1] is -25%; in test [2], -25%; in test [4], 15%. Further, the results for the change in vivo at 50 mg/kg in test [1], in test [2] and in test [4] were -30%, -30% and 20%, respectively. Besides, the change in vivo at 100 mg/kg in test [1] was -40%; in test [2] it was -35%; in test [4], 30%. Also, the inhibition at 40 µM in test [5] (setting [6]) came to 15%; in test [5] (setting [7]) it was 15%; in test [5] (setting [8]), 30%.

In the case of `O=C(O)CCCCCCCCCCNS(=O)(=O)c1cccc(C(=O)c2ccccc2)c1` [Compound 1684], the change in vivo at 25 mg/kg was -28% in test [1], -30% in test [2] and 35% in test [4]. Besides, the change in vivo at 50 mg/kg in test [1] was -42%; in test [2] it was -45%; in test [4] it was 45%. Moreover, the results for the change in vivo at 100 mg/kg in test [1], in test [2] and in test [4] were -45%, -55% and 50%, respectively. Moreover, the inhibition at 40 µM in test [5] (setting [6]) is 35%; in test [5] (setting [7]), 20%; in test [5] (setting [8]), 60%.

Regarding `O=C(O)CCCCCCCCCCNS(=O)(=O)c1ccc(C(=O)c2ccccc2)cc1` [Compound 1686], the change in vivo at 25 mg/kg in test [1] is -50%; in test [2], -50%; in test [4], 35%. Also, the change in vivo at 50 mg/kg is -50% in test [1], -50% in test [2] and 50% in test [4]. Further, the change in vivo at 100 mg/kg in test [1] was -50%; in test [2], -55%; in test [4], 50%. Further, the inhibition at 40 µM in test [5] (setting [6]) was found to be 5%; in test [5] (setting [7]), 0%; in test [5] (setting [8]), 25%.

As to `O=C(O)CCCCCCCCCCCNS(=O)(=O)c1ccc(C(=O)c2ccccc2)cc1` [Compound 1687], the change in vivo at 25 mg/kg in test [1] was -23%; in test [2], -25%; in test [4], 25%. The change in vivo at 50 mg/kg is -28% in test [1], -30% in test [2] and 35% in test [4]. Also, the change in vivo at 100 mg/kg in test [1] is -50%; in test [2], -48%; in test [4] it was 50%. Besides, the inhibition at 40 µM in test [5] (setting [6]) was 0%; in test [5] (setting [7]), 16%; in test [5] (setting [8]), -30%.

Regarding `O=C(O)CCCCCCCCCCNS(=O)(=O)c1cccc(C(=O)c2cc(S(=O)(=O)NCCCCCCCCCCC(=O)O)ccc2Cl)c1` [Compound 1688], the change in vivo at 25 mg/kg in test [1] was -25%; in test [2], -25%; in test [4] it was 25%. Moreover, the values for the change in vivo at 50 mg/kg in test [1], in test [2] and in test [4] were -28%, -32% and 32%, respectively. The figures for the change in vivo at 100 mg/kg in test [1], in test [2] and in test [4] were -48%, -50% and 50%, respectively. Moreover, the figures for the inhibition at 40 µM in test [5] (setting [6]), in test [5] (setting [7]) and in test [5] (setting [8]) were -35%, 35% and 20%, respectively.
